# Results: patent US6710041B2, “Pyrrolo[2,1-B][3,1] benzothiazepines and their use for the preparation of medicaments with antipsychotic activity” (Sigma-Tau Industrie Farmaceutiche Riunite S.p.A., priority 2003, dated 2004)
# Legend:
# Wistar male rats = assay: Evaluation of catalepsy (bar test); type: in vivo, rat
# Procedure: The test was performed on Wistar male rats (N=7 animals); catalepsy was evaluated by means of a metal bar measuring 0.6 cm in diameter positioned at a distance of 10 cm from the work surface. The substance studied, in the form of maleic acid salt (ST1699), was administered subcutaneously 30 minutes prior to the evaluation. The subsequent evaluation times were 60, 90, 120, 180, 240, and 300 minutes after administration.
# By means of the test used for evaluating catalepsy in the rat, ST1699 affinity for the D2 receptor subtype of the nigrostriatal dopaminergic system was verified.
# Table 4 gives the percentages of animals presenting catalepsy at the various different times after administration of subacute doses of the study compound.
# H1 histamine receptor = target: T1, H1 histamine receptor (Rattus norvegicus, UniProt P31390); assay: Interaction with H1 receptors, [3H]-pyrilamine binding, rat cortex membranes; conditions: Table 1; mean and standard deviation; read-out: H1 Ki ± ds
# T1 construct: from tissue; host or cells: rat cortex membranes
# Procedure: Interaction with H1 Receptors
# Aspecific binding was determined in the presence of 100 μM of pyrilamine.
# 5-HT2 versus D2 receptor = assay: Classification of typical and atypical antipsychotics by 5-HT2 versus D2 pKi ratio and Log Y score; conditions: for LogY: Log Y score smaller than 6.48 = atypical profile
# T1 sequence (P31390 whole entry): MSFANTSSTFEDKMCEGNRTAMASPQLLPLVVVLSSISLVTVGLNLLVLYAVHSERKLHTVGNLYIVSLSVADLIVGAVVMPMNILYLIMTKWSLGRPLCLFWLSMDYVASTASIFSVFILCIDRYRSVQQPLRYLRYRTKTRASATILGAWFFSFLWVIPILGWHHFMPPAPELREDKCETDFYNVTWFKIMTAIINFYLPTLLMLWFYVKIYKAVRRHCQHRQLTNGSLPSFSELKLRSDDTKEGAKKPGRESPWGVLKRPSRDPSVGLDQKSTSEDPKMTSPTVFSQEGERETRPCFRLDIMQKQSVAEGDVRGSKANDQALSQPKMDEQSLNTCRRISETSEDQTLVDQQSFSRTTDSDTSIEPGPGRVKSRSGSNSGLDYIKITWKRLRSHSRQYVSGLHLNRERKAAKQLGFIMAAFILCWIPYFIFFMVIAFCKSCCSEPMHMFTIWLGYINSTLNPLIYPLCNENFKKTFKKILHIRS
smiles,measurement,setting,value
"O=C(CCCN1CCC(O)(c2ccc(Cl)cc2)CC1)c1ccc(F)cc1 [Haloperidol, haloperidol, reference compound]",percentage of animals presenting catalepsy,"Wistar male rats; 0.2 mg/kg, 30 min after administration",0%
same,percentage of animals presenting catalepsy,"Wistar male rats; 0.2 mg/kg, 60 min after administration",70%
same,percentage of animals presenting catalepsy,"Wistar male rats; 0.2 mg/kg, 90 min after administration",100%
same,percentage of animals presenting catalepsy,"Wistar male rats; 0.2 mg/kg, 120 min after administration",100%
same,percentage of animals presenting catalepsy,"Wistar male rats; 0.2 mg/kg, 180 min after administration",100%
"CN1CCN(C2=Cn3cccc3Sc3ccc(Cl)cc32)CC1 [ST1508, 7-chloro-9-(4-methyl-1-piperazinyl)pyrrolo[2,1-b][1,3]benzothiazepine]",Ki,H1 histamine receptor,2.7 ± 0.02 nM
same,LogY,5-HT2 versus D2 receptor,8.20
"Cc1ccc2n1C=C(N1CCN(C)CC1)c1ccccc1S2 [ST2092, 1-Methyl-9-(4-methylpiperazin-1-yl)pyrrolo[2,1-b][1,3]benzothiazepine]",LogY,5-HT2 versus D2 receptor,3.19
same,binding affinity at 5 HT2 receptor compared with D2 dopamine receptor,5-HT2 versus D2 receptor; in words,greater than D2 dopamine receptor
"CN1CCN(C2=Cn3cccc3Sc3ccc(Cl)cc32)CC1 [ST1699, 7-chloro-9-(4-methyl-1-piperazinyl)pyrrolo[2,1-b][1,3]benzothiazepine]",percentage of animals presenting catalepsy,"Wistar male rats; 0.3 mg/kg subcutaneously, 30 min after administration",0%
same,percentage of animals presenting catalepsy,"Wistar male rats; 0.3 mg/kg subcutaneously, 60 min after administration",0%
same,percentage of animals presenting catalepsy,"Wistar male rats; 0.3 mg/kg subcutaneously, 90 min after administration",17%
same,percentage of animals presenting catalepsy,"Wistar male rats; 0.3 mg/kg subcutaneously, 120 min after administration",17%
same,percentage of animals presenting catalepsy,"Wistar male rats; 0.3 mg/kg subcutaneously, 180 min after administration",33%
same,percentage of animals presenting catalepsy,"Wistar male rats; 0.6 mg/kg subcutaneously, 30 min after administration",33%
same,percentage of animals presenting catalepsy,"Wistar male rats; 0.6 mg/kg subcutaneously, 60 min after administration",66%
same,percentage of animals presenting catalepsy,"Wistar male rats; 0.6 mg/kg subcutaneously, 90 min after administration",83%
same,percentage of animals presenting catalepsy,"Wistar male rats; 0.6 mg/kg subcutaneously, 120 min after administration",100%
same,percentage of animals presenting catalepsy,"Wistar male rats; 0.6 mg/kg subcutaneously, 180 min after administration",100%
same,occurrence of catalepsy,"Wistar male rats; in words, highest dose among those used (0.6 mg/kg), effects comparable to 0.2 mg/kg of haloperidol",induced the occurrence of catalepsy
